20 compounds from patent publication US4405642A, “Method for treatment or prophylaxis of cardiac disorders” (American Hospital Supply Corporation, priority 1980, dated 1983) can be followed below.

Molecules are shown by their SMILES. Counter-ions that a name gives are not always drawn. Where only a bound is given, the exact number is not on record here.

Series [1] addresses T1, β-adrenergic receptors (guinea pig tracheal strips) (Cavia porcellus, UniProt Q8K4Z4).
T1 construct: from tissue; host or cells: guinea pig trachea (isolated spiral strips)
Put plainly: β-blocking activity in vitro, guinea pig tracheal strips (tension response to isoproterenol). In kind it is cell-based. The note with it: vs isoproterenol, 60 minute incubation, 37° C., read-out: pA2 Trachea (converted). As to the method: (§1) Each tissue was suspended between a fixed glass rod and a Statham® Universal Transducer connected to a Beckman® recorder. Atria were allowed to beat spontaneously under a loading tension of approximately 0.5 gm. Instrinsic depressant or stimulant activity was determined for each compound by progressively increasing concentrations in the tissue baths at 60-minute intervals. Tissues were not washed between increments. The maximum concentration showing little or no cardiodepressant activity was chosen for blockade experiments. Changes in rate in response to isoproterenol were measured in the absence and presence of test compounds. Spiral strips of guinea pig trachea were suspended under 5 gm resting tension and incubated with phentolamine, tropolone and cocaine. Active tension was generated by addition of carbachol (3.0×10^-7 M) and decreases in tension in response to isoproterenol were quantitated. Cumulative concentration-response curves were produced with isoproterenol both before and after 60 minute incubation of test compounds with atria and trachea. The blocking potency of test compounds was estimated by computing pA2 values (-log […]) by the method of Furchgott, The Pharmacological Differentiation of Adrenergic Receptors, Ann. […] The degree of cardioselectivity was estimated from the ratio, KB trachea/KB atria (10^(pA.sbsp.2^atria-pA.sbsp.2^trachea)). A ratio greater than one indicates cardioselectivity. Test drugs were dissolved in distilled water and added to the bath (30 ml) in a volume of 10 or 100 μl.

The target of series [2] is T2, β-adrenergic receptors (guinea pig right atria) (Cavia porcellus, UniProt H0W3H1).
T2 construct: Atria were allowed to beat spontaneously under a loading tension; from tissue; host or cells: guinea pig right atria (isolated, spontaneously beating)
T2 sequence (H0W3H1 1-470): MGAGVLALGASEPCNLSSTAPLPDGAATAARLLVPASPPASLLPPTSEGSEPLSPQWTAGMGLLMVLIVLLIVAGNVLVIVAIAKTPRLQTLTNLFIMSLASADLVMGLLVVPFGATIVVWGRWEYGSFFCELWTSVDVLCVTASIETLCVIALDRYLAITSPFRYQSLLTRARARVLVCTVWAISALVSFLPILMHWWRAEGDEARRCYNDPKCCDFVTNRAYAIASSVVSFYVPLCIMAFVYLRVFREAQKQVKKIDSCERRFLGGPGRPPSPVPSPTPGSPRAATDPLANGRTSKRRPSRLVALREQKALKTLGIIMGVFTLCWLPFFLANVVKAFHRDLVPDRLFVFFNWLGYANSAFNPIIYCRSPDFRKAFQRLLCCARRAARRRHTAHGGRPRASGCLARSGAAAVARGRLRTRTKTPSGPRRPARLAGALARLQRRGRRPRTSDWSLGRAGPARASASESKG
The series is described as follows: β-blocking activity in vitro, guinea pig right atria (rate response to isoproterenol). In kind it is cell-based. To be noted: vs isoproterenol, guinea pig right atria, 60 minute incubation, 37° C.; read-out: pA2 Atria (converted). How it is done: as §1

Series [3] deals with β-adrenergic receptors (guinea pig right atria). The description is as above. In kind it is cell-based. The note with it: ratio from pA2 atria and trachea; greater than one indicates cardioselectivity. As to the method:
as §1

The nature of series [4]: Disappearance in vitro in dog whole blood. In kind it is in vitro ADME. To be noted: 50 μg test compound, 37° C., read-out: T1/2 Dog Whole Blood. As to the method: (§2) The rate of disappearance of a compound is expressed as the half-life (T1/2), which is the time period in which one half of the initial amount of compound tested disappears. […] The samples were incubated in a Dubnoff shaking metabolic incubator for 2.5, 5.0, 10.0, 20.0, 30.0 and 60.0 minutes at 37° C. At the designated time periods, the test mixtures were removed from the incubator and transferred to a 0° C. ice bath. Acetonitrile (2 ml) was immediately added and the mixtures were mixed to stop enzymatic hydrolysis. Zero time samples were prepared by adding 2 ml. of acetonitrile to denature the proteins prior to addition of the test compounds. After centrifugation to sediment denatured proteins, 2 ml. of the supernatant was removed and analyzed by high pressure liquid chromatography, using a mobile phase of 60% acetonitrile/40% 0.05 m sodium phosphate buffer (pH 6.6), a U.V. detector and Waters® μ Bondapak Phenyl column. The half life of each test compound was determined graphically by plotting the decrease in concentration as a function of time.

The nature of series [5]: Disappearance in vitro in human whole blood. The series is classed as in vitro ADME. To be noted: 50 μg test compound, 37° C., read-out: T1/2 Human Whole Blood. As to the method:
as §2

The test system of series [6] is heart rate response to isoproterenol. The series is described as follows: Duration of beta-blockade in vivo, anesthetized dogs, 3-hour infusion. To be noted: dog; for 80% Recovery Time: after termination of 3-hour infusion; for % I (Percent inhibition of heart rate response to isoproterenol): end of 3-hour infusion, bolus isoproterenol 0.5 μg/kg. How it is done: (§3) The duration of beta-blockade was determined in vivo using pentobarbitalanesthetized dogs instrumented for measurement of heart rate using a Beckman® cardiotachometer triggered electronically by a phasic aortic blood pressure signal. Both vagus nerves were severed in the cervical region and the animals were mechanically ventilated. Two experimental designs were used. The first employed a 40-minute infusion of test compound and the second used a 3-hour infusion of test compound. In the 40-minute model, isoproterenol was infused into a foreleg vein at the rate of 0.5 μg/kg/min to induce a beta-receptor mediated tachycardia. Various doses of test compound where then infused into a femoral vein over a period of 40 minutes. This infusion was then terminated and recovery from blockade was quantitated. […] This cumulative dose is expressed as mg/kg and is an indication of potency. The time period required for 80% recovery of heart rate for each dose of test drug was also measured to quantitate duration of action. […] Test compounds were dissolved in 0.9% NaCl and infused at a rate of 0.05 ml/kg/min or less. In the 3-hour infusion model, bolus doses of isoproterenol (0.5 μg/kg) were used to assess the degree of beta-blockade and recovery from beta-blockade after termination of the infusion. The doses were spaced at 10-minute intervals and were given before, during and following the infusion of test compounds. The infusion rate was adjusted so that at the end of the 3-hour infusion period the degree of isoproterenol inhibition averaged about 50% of control.

Series [7] in a line: Disappearance in vitro in dog liver homogenate. The note with it: 50 μg test compound, 33% (w/v) liver homogenate, 37° C., read-out: T1/2 Dog Liver Homogenate. The series is classed as in vitro ADME. How it is done: as §2
For series [8], the system named is heart rate response to isoproterenol. The series is described as follows: Duration of beta-blockade in vivo, anesthetized dogs, 40-minute infusion. Details: species or system dog. To be noted: for Recovery Times 50%: 50% recovery of heart rate after 40-minute infusion; for Recovery Times 50% / Recovery Times 80% / Recovery Times 100%: normalized to 50% inhibition, dog; for Recovery Times 80%: 80% recovery of heart rate after 40-minute infusion; for Recovery Times 100%: 100% recovery of heart rate after 40-minute infusion; for ED50: Canis lupus familiaris, iv, 40 min, read-out: Potency. How it is done:
as §3

T1 sequence (Q8K4Z4 whole entry): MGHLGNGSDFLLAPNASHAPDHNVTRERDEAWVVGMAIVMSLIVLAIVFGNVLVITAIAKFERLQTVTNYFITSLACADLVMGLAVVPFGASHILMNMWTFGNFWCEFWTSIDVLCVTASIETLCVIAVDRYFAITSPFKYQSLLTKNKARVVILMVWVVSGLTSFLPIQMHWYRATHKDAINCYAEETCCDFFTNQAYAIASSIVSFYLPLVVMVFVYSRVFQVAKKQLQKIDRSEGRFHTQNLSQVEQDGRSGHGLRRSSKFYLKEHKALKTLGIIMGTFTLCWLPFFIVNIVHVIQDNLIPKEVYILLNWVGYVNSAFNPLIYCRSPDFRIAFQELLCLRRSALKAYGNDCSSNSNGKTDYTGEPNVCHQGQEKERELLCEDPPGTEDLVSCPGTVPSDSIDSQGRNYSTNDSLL

On to `COc1ccc(CCNCC(O)COC(=O)c2cccc(F)c2)cc1OC` (stereo not drawn) [XXXIV], for which the Kb is 631 nM in series [1] and 398 nM in series [2]. The “Cardioselectivity KB (Trachea)/KB (Atria)” value (from here on “Cardioselectivity KB”) in series [3] is 2.

Turning to `COc1ccc(CCNCC(O)COC(=O)c2ccccc2F)cc1OC` (stereo not drawn) [XXXIII], the Kb was 2000 nM in series [1] and 794 nM in series [2]. Further, in series [3], the “Cardioselectivity KB” value was 2.5.

For `CC(C)(C)NCC(O)COC(=O)c1ccccc1` (stereo not drawn) [XXXVII], the half-life in series [4] came to 5.5 min; in series [5] it was 5.3 ± 1 min. Besides, the results for the Kb in series [1] and in series [2] were 20 nM and 158 nM, respectively. Also, in series [6], the “80% Recovery Time” value was greater than 60 min. The “% I (Percent inhibition of heart rate response to isoproterenol)” value in series [6] is reported as 64 ± 5%.

On to `CC(C)NCC(O)COC(=O)c1ccccc1Cl` (stereo not drawn) [Example XII, [3-(Isopropylamino)-2-hydroxy]propyl 2-chlorobenzoate hydrochloride], for which, in series [4], the half-life was 28 ± 15 min. Further, in series [7], the half-life was 12 ± 4 min. In addition, in series [5], the half-life amounted to 1.7 ± 0.6 min. Also, in series [8], the “Recovery Times 50%” value is 19 min, the “Recovery Times 80%” value is 30 min, the “Recovery Times 100%” value came out at 51 min and the ED50 came out at 1.75 mg/kg.

For the compound `COc1ccc(CCNCC(O)COC(=O)c2ccc(F)cc2)cc1OC` (stereo not drawn) [XXXV], the figures for the Kb in series [1] and in series [2] were 200 nM and 100 nM, respectively. Moreover, the “Cardioselectivity KB” value in series [3] stood at 2. The “80% Recovery Time” value in series [6] is greater than 60 min. Besides, the “% I (Percent inhibition of heart rate response to isoproterenol)” value in series [6] is recorded as 59%.

With `CC(C)(C)NCC(O)COC(=O)c1ccc(F)cc1` (stereo not drawn) [XL], the half-life in series [4] came out at 13 min; in series [5] it was 11 ± 5 min.

`CC(C)NCC(O)COC(=O)c1cccc(F)c1` (stereo not drawn) [XIX]: the half-life in series [4] worked out at 50 min; in series [5], 8 ± 4 min. Moreover, the Kb in series [1] is 100 nM.

For the compound `COc1ccc(CCNCC(O)C(=O)Oc2ccccc2)cc1OC` (stereo not drawn) [Example I, N-(3,4-Dimethoxyphenethyl)-N-[(2-hydroxy-2-phenoxycarbonyl)ethyl-]amine Hydrochloride], the Kb in series [1] was 1260 nM. The Kb in series [2] was 1260 nM. The “Cardioselectivity KB” value in series [3] is 1. Besides, in series [8], the “Recovery Times 50%” value is 6 ± 1 min, the “Recovery Times 80%” value is 11 ± 1 min, the “Recovery Times 100%” value amounted to 16 ± 2 min and the ED50 was determined as 3.5 ± 0.5 mg/kg.

Take `CC(C)(C)NCC(O)COC(=O)c1ccccc1F` (stereo not drawn) [XXXIX]: the half-life in series [4] was determined as 6 ± 2 min; in series [7] it was 17 ± 7 min; in series [5] it was 1.4 ± 1 min. Further, the Kb in series [1] is 10 nM; in series [2] it was 158 nM. Further, the “80% Recovery Time” value in series [6] is given as 17 ± 3 min. Moreover, the “% I (Percent inhibition of heart rate response to isoproterenol)” value in series [6] was 60 ± 2%.

`CC(C)NCC(O)COC(=O)c1ccccc1F` (stereo not drawn) [XVIII]: in series [4], the half-life was 7 min. The Kb in series [1] was 79.4 nM. Further, the half-life in series [5] came to 1.7 ± 0.6 min. In addition, in series [8], the “Recovery Times 80%” value worked out at 8 ± 1 min and the ED50 is 1.5 mg/kg. In series [6], the “80% Recovery Time” value stood at 25 ± 9 min and the “% I (Percent inhibition of heart rate response to isoproterenol)” value is given as 46 ± 5%.

For the compound `CC(C)(C)NCC(O)COC(=O)c1ccccc1Cl` (stereo not drawn) [XXXVIII], the half-life is 30 ± 2 min in series [4], 68 ± 4 min in series [7] and 6 ± 2 min in series [5]. The “% I (Percent inhibition of heart rate response to isoproterenol)” value in series [6] turned out to be 67%.

Take `COc1ccc(C(=O)OCC(O)CNC(C)C)cc1` (stereo not drawn) [XXIII]: the half-life in series [4] was 150 ± 30 min; in series [7], 37 ± 20 min; in series [5], 55 ± 5 min. Also, the Kb in series [1] is 501 nM; in series [2], 1000 nM. Besides, the “80% Recovery Time” value in series [6] is on record as greater than 60 min. In addition, the “% I (Percent inhibition of heart rate response to isoproterenol)” value in series [6] is given as 67 ± 6%.

With `CC(=O)Nc1ccc(C(=O)OCC(O)CNC(C)C)cc1` (stereo not drawn) [Example LXII, [2-Hydroxy-3-(isopropylamino)]propyl 4-(acetamido)benzoate hydrochloride], the Kb is 6310 nM in series [1] and 1580 nM in series [2]. Further, in series [3], the “Cardioselectivity KB” value is listed as 4.

For the compound `COc1ccc(CCNCC(O)COC(=O)c2ccccc2)cc1OC` (stereo not drawn) [Example VII], the figures for the Kb in series [1] and in series [2] were 501 nM and 100 nM, respectively. Moreover, in series [3], the “Cardioselectivity KB” value was determined as 5. Moreover, the “80% Recovery Time” value in series [6] was 29 ± 5 min. For the same compound, the “% I (Percent inhibition of heart rate response to isoproterenol)” value in series [6] was 45 ± 2%.

For `CC(C)NCC(O)COC(=O)c1ccc(F)cc1` (stereo not drawn) [Example XX], the half-life in series [4] worked out at 4 min; in series [5] it was 3.5 ± 0.9 min. In addition, the Kb in series [1] was 50.1 nM; in series [2] it was 251 nM.

For `COc1ccc(CCNCC(O)COC(=O)c2ccccc2Cl)cc1OC` (stereo not drawn) [XIII], the Kb in series [1] is 31.6 nM. For the same compound, the Kb in series [2] was 15.8 nM. Further, in series [3], the “Cardioselectivity KB” value came out at 2. In addition, in series [8], the “Recovery Times 50%” value came out at 7 min, the “Recovery Times 80%” value was 12 ± 1 min, the “Recovery Times 100%” value amounted to 24 min and the ED50 is 2 ± 0.6 mg/kg.

Take `Cc1ccccc1C(=O)OCC(O)CNC(C)C` (stereo not drawn) [XVII]: the half-life is greater than 180 min in series [4], 147 ± 69 min in series [7] and greater than 180 min in series [5]. The “80% Recovery Time” value in series [6] is greater than 60 min. Moreover, the “% I (Percent inhibition of heart rate response to isoproterenol)” value in series [6] is recorded as 83%.

Turning to `Cc1ccccc1C(=O)OCC(O)CNC(C)(C)C` (stereo not drawn) [XLI], the half-life in series [4] and in series [5] was greater than 180 min in each case.

With `COc1ccc(CCNCC(O)COC(=O)c2ccc(C)cc2)cc1OC` (stereo not drawn) [Example XI], the Kb in series [1] is 1000 nM. In addition, in series [2], the Kb was 251 nM. Further, the “Cardioselectivity KB” value in series [3] was determined as 4. In addition, in series [8], the “Recovery Times 50%” value amounted to 8 ± 1 min, the “Recovery Times 80%” value amounted to 16 ± 2 min, the “Recovery Times 100%” value came out at 25 ± 3 min and the ED50 is 17.2 ± 5.8 mg/kg.

With `Cc1cccc(C(=O)OCC(O)CNC(C)(C)C)c1` (stereo not drawn) [XLII], the half-life in series [4] stood at 150 min; in series [5] it was 5.5 ± 2.6 min.
